Test results reported in patent US20250154686A1, “COMPOUND LIBRARY” (CHUGAI SEIYAKU KABUSHIKI KAISHA, priority 2021, published 2025).

Molecular target: T1, Bcl-2 protein (Recombinant Human Bcl-2 Protein) (Homo sapiens, UniProt P10415)
T1 construct: purchased Novus Biologicals NBP2-34889
Experiment: AS-MS evaluation of binding of the Example 4 mixture library (1200 compounds/well) to Bcl-2, ASMS ratio (%)
Procedure: DMSO solutions (prepared into approximately 0.58 mM based on calculation from the average molecular weight of each mixture) of 12 types of mixtures that could each contain 100 compounds, i.e., mixAI-B4J-01, mixAI-B1M-01, mixAI-B1K-01, mixAI-BIO-01, mixAI-B1A-01, mixAI-B3A-01, mixAI-B21-01, mixAI-B2L-01, mixAI-B2N-01, mixAI-B2A-01, mixAI-B2Q-01, and mixAI-B2R-01, shown in Table AI-03-B4J-01, Table AI-03-B1M-01, Table AI-03-B1K-01, Table AI-03-B10-01, Table AI-03-B1A-01, Table AI-03-B3A-01, Table AI-03-B21-01, Table AI-03-B2L-01, Table AI-03-B2N-01, Table AI-03-B2A-01, Table AI-03-B2Q-01, and Table AI-03-B2R-01 described in Example 4, were respectively dispensed to a total of 12 wells of MICROPLATE, 96-well, PP, V-BOTTOM (Greiner Bio-One International GmbH, 651201). 70 nL each from the 12 wells was collected into any one well using LABCYTE ECHO® 555 acoustic dispensing system (Beckman Coulter, Inc.) to prepare a sample solution in a mixed state of 1200 compounds (the presence of 1152 compounds was already identified when the mixtures were prepared in Example 4). Further, Bcl-2 protein (Novus Biologicals, NBP2-34889, Recombinant Human Bcl-2 Protein, Lot E60145051) (19.2 μL) prepared at 20.9 μM in advance using a Tris-HCl buffer (25 mM Tris-HCl, pH 7.4, 150 mM NaCl, 0.025% Tween-20, and 1 mM DTT) was added to the well containing the dispensed 1200 compounds (the presence of 1152 compounds was already identified when the mixtures were prepared in Example 4) (final compound concentration: 20 nM, final Bcl-2 concentration: 20 μM), and the plate was incubated at 23° C. for 1 hour in the dark. Subsequently, 200 μL of an assay buffer (25 mM Tris-HCl, pH 7.4, 150 mM NaCl, 0.025% Tween-20, and 1 mM DTT) was centrifuged three times at 2000×G at 4° C. for 2 minutes using 96-well MacroSpin column, P-2 Material (Harvard Bioscience, Inc., 74-5655) that had been allowed to swell to condition the 96-well MacroSpin column. Subsequently, 20 μL of the sample thus incubated was added to the 96-well MacroSpin column, P-2 Material after the completion of conditioning, and SEC treatment was performed by centrifugation at 2000×G for 2 minutes. 32 μL of a 1:1 mixed solution of acetonitrile and methanol (LC/MS grade, FUJIFILM Wako Pure Chemical Corp.) was added to a flow-through liquid from SEC, and the mixture was centrifuged at 1800×G at 4° C. for 5 minutes. The supernatant was used as analysis sample ASMS (A). By a similar operation, a sample prepared at 1200 compounds/well and supplemented with only a Tris-HCl buffer containing no Bcl-2 protein was incubated under the same conditions as above, and the same organic solvent as above was added thereto without 96-well MacroSpin column treatment. A supernatant obtained by a centrifugation operation was used as STD (B). Next, by a similar operation, a sample prepared at 1200 compounds/well and supplemented with only a Tris-HCl buffer containing no Bcl-2 protein was incubated under the same conditions as above and treated with 96-well MacroSpin column in the same manner as above, and the same organic solvent as above was added thereto. A supernatant obtained by a centrifugation operation was used as BK (C). These samples were measured by reverse-phase LC/MS.
Then, the samples A, B and C were analyzed for the 1200 compounds using TraceFinder 5.1 (Thermo Fisher Scientific Inc.) and CHANCE Software (in-house), and an ASMS ratio (%) was calculated according to the following expression.
Although m/z of the MS peaks was confirmed down to four decimal places, 0 at the decimal level may be omitted in the description in Table AJ-01. For example, “587.0000” is also referred to as “587”, “587.1000” is also referred to as “587.1”, “587.1200” is also referred to as “587.12”, and “587.1230” is also referred to as “587.123”.

[1] = replicate n = 1, mixture library, value belongs to the MS peak assigned to the compound
[2] = replicate n = 2, mixture library, value belongs to the MS peak assigned to the compound
[3] = AS-MS, mixture of 1200 compounds/well, Bcl-2 protein, replicate n = 1
[4] = AS-MS, mixture of 1200 compounds/well, Bcl-2 protein, replicate n = 2
[5] = AS-MS, Example 4 mixture library, Bcl-2, replicate n = 1
[6] = AS-MS, Example 4 mixture library, Bcl-2, replicate n = 2

T1 sequence (P10415 whole entry): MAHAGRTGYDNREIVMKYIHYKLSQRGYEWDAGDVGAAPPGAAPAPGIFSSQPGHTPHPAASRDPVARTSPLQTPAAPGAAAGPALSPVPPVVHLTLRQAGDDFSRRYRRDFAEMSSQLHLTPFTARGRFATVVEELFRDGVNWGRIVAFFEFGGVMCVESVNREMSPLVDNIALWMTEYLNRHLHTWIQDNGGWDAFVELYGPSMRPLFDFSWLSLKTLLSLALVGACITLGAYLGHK

| SMILES | ASMS ratio (%) n = 1 [1] [%] | ASMS ratio (%) n = 2 [2] [%] | ASMS ratio (%) n = 1 [5] [%] | ASMS ratio (%) n = 2 [6] [%] | other results |
| --- | --- | --- | --- | --- | --- |
| CCCNC(=O)c1ccc(N2CCN(Cc3cc(-c4cccc(OCC)c4)cs3)CC2)nn1 [Compound B1M093-01] | – | – | – | – | ASMS ratio (%) n = 1 [3]: 0.0%; ASMS ratio (%) n = 2 [4]: 0.0% |
| CCCNC(=O)c1ccc(N2CCN(Cc3ccc(-c4cccc(OCC)c4)c4ccccc34)CC2)cc1 [Compound B1M065-01] | – | – | – | – | ASMS ratio (%) n = 1 [3]: 0.2%; ASMS ratio (%) n = 2 [4]: −6.4% |
| CCOc1cncc(C#Cc2cncc(C(=O)N3CCN(c4ccc(C(=O)NS(=O)(=O)c5ccc(NCCSc6ccccc6)c(C(F)(F)F)c5)nn4)CC3)c2)c1 [Compound B2R010-01, 6-[4-[5-[2-(5-Ethoxypyridin-3-yl)ethynyl]pyridine-3-carbonyl]piperazin-1-yl]-N-[4-(2-phenylsulfanylethylamino)-3-(trifluoromethyl)phenyl]sulfonylpyridazine-3-carboxamide] | – | – | 0.0 | 0.0 | – |
| CCOc1cncc(-c2cc(CN3CCN(c4ccc(C(=O)NS(=O)(=O)CCC(F)(F)F)nn4)CC3)cc(OCC)c2)c1 [Compound B2N082-01, 6-[4-[[3-Ethoxy-5-(5-ethoxypyridin-3-yl)phenyl]methyl]piperazin-1-yl]-N-(3,3,3-trifluoropropylsulfonyl)pyridazine-3-carboxamide] | – | – | 2.5 | 2.8 | – |
| CCOc1cncc(-c2ccc(CN3CCN(c4ccc(C(=O)NS(=O)(=O)c5ccc(NCCSc6ccccc6)c(C(F)(F)F)c5)nn4)CC3)c(CC)c2)c1 [Compound B2R076-01] | – | – | 3.9 | 19.7 | – |
| CCOc1cncc(-c2ccc(CN3CCN(c4ccc(C(=O)NS(=O)(=O)C(C)(C)C)nn4)CC3)cc2F)c1 [Compound B2L078-01, N-tert-Butylsulfonyl-6-[4-[[4-(5-ethoxypyridin-3-yl)-3-fluorophenyl]methyl]piperazin-1-yl]pyridazine-3-carboxamide] | 1.1 | −0.7 | – | – | – |

Now from value to compound, other results behind:

| ASMS ratio (%) n = 1 [1] [%] | ASMS ratio (%) n = 2 [2] [%] | ASMS ratio (%) n = 1 [5] [%] | ASMS ratio (%) n = 2 [6] [%] | SMILES | other results |
| --- | --- | --- | --- | --- | --- |
| 0.0 | 0.0 | – | – | CCOc1cccc(-c2ccc(C(=O)N3CCN(c4ccc(C(=O)NS(=O)(=O)C(C)(C)C)nn4)CC3)cc2F)c1 [Compound B2L005-01] | – |
| – | – | −1.4 | 0.1 | CCOc1cccc(-c2cnn(-c3cc(C(=O)N4CCN(c5ccc(C(=O)NS(=O)(=O)CCC(F)(F)F)cc5)CC4)cc(C(F)(F)F)c3)c2)c1 [Compound B2N043-01, 4-[4-[3-[4-(3-Ethoxyphenyl)pyrazol-1-yl]-5-(trifluoromethyl)benzoyl]piperazin-1-yl]-N-(3,3,3-trifluoropropylsulfonyl)benzamide] | – |
| 0.0 | 0.0 | – | – | CCOc1cncc(-c2cnn(-c3cc(C(=O)N4CCN(c5ccc(C(=O)NS(C)(=O)=O)cc5)CC4)cc(C(F)(F)F)c3)c2)c1 [Compound B2I044-01, 4-[4-[3-[4-(5-Ethoxypyridin-3-yl)pyrazol-1-yl]-5-(trifluoromethyl)benzoyl]piperazin-1-yl]-N-methylsulfonylbenzamide] | – |
| 0.0 | 0.0 | – | – | CCOc1cccc(-c2cc(C(=O)N3CCN(c4ccc(C(=O)NS(=O)(=O)C(C)(C)C)cc4)CC3)cc(C(C)(C)C)c2)c1 [Compound B2L037-01, 4-[4-[3-tert-Butyl-5-(3-ethoxyphenyl)benzoyl]piperazin-1-yl]-N-tert-butylsulfonylbenzamide] | – |
| – | – | 0.0 | 0.0 | CCOc1cncc(-c2ccc(C(C)N3CCN(c4ccc(C(=O)NS(=O)(=O)C(C)(C)C)cc4)CC3)c(F)c2)c1 (stereo not shown) [Compound B2L100-01, N-tert-Butylsulfonyl-4-[4-[1-[4-(5-ethoxypyridin-3-yl)-2-fluorophenyl]ethyl]piperazin-1-yl]benzamide] | – |
